Measured values: publication PMC2362731, “Phase I study of Carzelesin (U-80,244) given (4-weekly) by intravenous bolus schedule” (British Journal of Cancer, 1999)

Assays:
[1] = Ex vivo conversion in blood samples; format: in vitro ADME, human; settings: if the sample is not immediately cooled in ice-water
Source text: Carzelesin (U-80,244, Figure 1A) is a cyclopropylpyrroloindole (CPI) prodrug analogue of CC-1065. […] CPI drugs are a class of compounds with unique DNA interactive properties. These agents fit into the minor groove region of DNA, and the CPI function in the molecule mediates a covalent binding to the N3 position of adenine in A-T rich regions, thus forming DNA adducts in a sequence selective fashion (Hurley et al, 1984; Reynolds et al, 1985). Three new CPIs have now been developed. […] Bizelesin differs from the classical CPI drugs in that it contains two chloromethyl functions, which are both converted (via intramolecular rearrangements) to the CPI alkyl- ating species that interact with DNA. Consequently, this agent is capable of forming DNA interstrand cross-links (Lee et al, 1991). […] Therefore, efforts were directed to modu- late the alkylation rate by the preparation of CPI prodrugs that would require chemical or enzymatic conversion. The activation of Carzelesin is a two-step reaction with hydrolysis of the phenyl- urethane substituent to form the intermediate compound U-76,073, followed by ring closure to form the active product U-76,074 (Figure 1B). […] The concentration of U-76,074 (active metabolite) extended above the lower limit of quantitation (1 ng ml-1) for short periods of time and only at the higher dose levels. […]

[2] = system: murine and human tumour xenografts; settings: ref Li et al, 1992, cited from earlier work
[3] = system: bone marrow, kidney, liver and spleen; parameters: method as in EORTC-NDDO, 1992; settings: ref EORTC-NDDO, 1992; cited from earlier work

**Q.** Which “stability in blood sample ex vivo” value [1] does the source give for `CCN(CC)c1ccc2cc(C(=O)Nc3ccc4[nH]c(C(=O)N5C[C@@H](CCl)c6c5cc(OC(=O)Nc5ccccc5)c5[nH]cc(C)c65)cc4c3)oc2c1` [Carzelesin] here?
**A.** readily converted to U-76,074 ex vivo

**Q.** What about the “efficacy in a broad panel of murine and human tumour xenografts” value ([2]; compared with adozelesin) of the same compound?
**A.** more efficacious

**Q.** What about the “efficacy against Lewis lung carcinoma, B16 melanoma, colon 38 carcinoma, colon CX1 adenocarcinoma, lung LX-1 tumour, ovarian 2780 and prostatic DU-145 carcinoma” value ([2]; Houghton et al, 1995) of the same compound?
**A.** highly effective

**Q.** What about the “organs in which toxicity occurred in preclinical studies” value [3] of the same compound?
**A.** bone marrow, kidney, liver and spleen
